Reference: paper PMC7613998, “Development of selective inhibitors of phosphatidylinositol 3-kinase C2α” (Nature Chemical Biology, 2022)

Experiments:
Test in all cases: biochemical
Design in all cases: SelectScreen Adapta purified lipid kinase panel, 1 uM compound, 10 uM ATP, per cent inhibition
Conditions in all cases: ATP=10; Technology=Adapta; 10 uM ATP
PI4KB (PI4K beta) = PI4KB (PI4K beta) (Homo sapiens, UniProt Q9UBF8)
Protocol: (§1) As PI3KC2α is related to other PI3Ks and to PI3K-like protein kinases such as mTOR, the selectivity of PITCOINs was determined in a panel of biochemical assays. […] Finally, the high specificity of PITCOINs for PI3KC2α was verified by Kinobead profiling experiments. In this approach, the ability of PITCOINs to compete the affinity capture of cellular kinases on immobilized nonselective kinase inhibitors (Kinobeads) is analyzed by mass spectrometry (MS)[31]. […] Four nonkinase weak off-targets were globally found for the three inhibitors with only FECH[32] common to the three PITCOINs (Supplementary Dataset).  Extended Data Fig. 2 Lipid kinase inhibitor profile of PITCOIN1-3. (a–c) Selectivity profiling of PITCOIN1-3 (1 µM) with purified lipid kinases in the presence of 10 µM ATP. […] Data are presented as mean ± SD from two independent experiments. (d, e) IC50 measurements of PITCOIN1-3 against purified recombinant class I PI3K p110α/p85α (d) or purified class III PI3K VPS34 complex II (e). 10 µM ATP and 20 µM PIP3 (for p110α/p85α) or 200 µM PI (for VPS34 complex II) were used as substrates. […] Data are presented as mean ± SD from two independent experiments. Source data

PIK3C2G (PI3K-C2 gamma) = target: T1, PIK3C2G (PI3K-C2 gamma) (Homo sapiens, UniProt O75747)
T1 sequence (O75747 1-1486): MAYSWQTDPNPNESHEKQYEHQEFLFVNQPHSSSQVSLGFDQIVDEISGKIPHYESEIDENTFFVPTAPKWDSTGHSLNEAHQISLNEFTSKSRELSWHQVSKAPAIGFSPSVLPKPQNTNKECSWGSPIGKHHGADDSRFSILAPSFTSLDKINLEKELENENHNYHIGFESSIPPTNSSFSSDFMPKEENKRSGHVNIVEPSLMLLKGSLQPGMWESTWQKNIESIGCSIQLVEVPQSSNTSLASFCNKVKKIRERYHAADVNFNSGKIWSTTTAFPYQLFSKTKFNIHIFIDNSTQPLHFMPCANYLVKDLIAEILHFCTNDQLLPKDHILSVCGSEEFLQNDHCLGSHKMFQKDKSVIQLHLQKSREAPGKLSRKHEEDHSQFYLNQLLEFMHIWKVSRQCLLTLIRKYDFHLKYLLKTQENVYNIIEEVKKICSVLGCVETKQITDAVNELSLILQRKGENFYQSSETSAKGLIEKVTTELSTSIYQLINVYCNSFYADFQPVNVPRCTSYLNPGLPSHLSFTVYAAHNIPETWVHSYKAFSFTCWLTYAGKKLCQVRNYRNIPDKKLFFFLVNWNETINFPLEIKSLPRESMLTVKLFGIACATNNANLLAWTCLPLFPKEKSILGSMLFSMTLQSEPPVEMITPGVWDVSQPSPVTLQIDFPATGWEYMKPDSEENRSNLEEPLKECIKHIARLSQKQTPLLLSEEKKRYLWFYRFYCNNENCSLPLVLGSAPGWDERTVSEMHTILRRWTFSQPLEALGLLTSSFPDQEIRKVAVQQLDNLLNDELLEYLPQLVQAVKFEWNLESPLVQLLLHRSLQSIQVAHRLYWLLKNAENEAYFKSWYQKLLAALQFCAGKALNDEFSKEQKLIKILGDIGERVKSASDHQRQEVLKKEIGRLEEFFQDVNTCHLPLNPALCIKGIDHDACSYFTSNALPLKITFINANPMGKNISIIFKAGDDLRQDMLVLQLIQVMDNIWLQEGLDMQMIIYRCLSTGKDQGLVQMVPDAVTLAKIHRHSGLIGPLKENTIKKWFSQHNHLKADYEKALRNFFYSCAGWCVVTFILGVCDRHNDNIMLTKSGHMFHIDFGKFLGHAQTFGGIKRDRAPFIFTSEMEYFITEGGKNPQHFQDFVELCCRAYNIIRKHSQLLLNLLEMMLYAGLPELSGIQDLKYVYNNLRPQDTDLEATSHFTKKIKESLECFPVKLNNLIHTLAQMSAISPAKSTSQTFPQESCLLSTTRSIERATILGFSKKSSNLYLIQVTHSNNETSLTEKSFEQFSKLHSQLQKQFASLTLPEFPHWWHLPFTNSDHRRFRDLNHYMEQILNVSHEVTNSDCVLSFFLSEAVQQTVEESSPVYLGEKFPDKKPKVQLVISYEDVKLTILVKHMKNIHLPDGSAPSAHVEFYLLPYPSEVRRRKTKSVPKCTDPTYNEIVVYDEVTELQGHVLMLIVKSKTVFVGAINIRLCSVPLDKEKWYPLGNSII
Protocol: as §1

PIK3C3 (hVPS34) = PIK3C3 (hVPS34) (Homo sapiens, UniProt Q8NEB9)
Protocol: as §1

[1] = target: PIK3CB/PIK3R2 (p110 beta/p85 beta) (Homo sapiens, UniProt P42338)
Protocol: as §1

PIP5K1A = PIP5K1A (Homo sapiens, UniProt Q99755)
Protocol: as §1

PIP5K1C = PIP5K1C (Homo sapiens, UniProt O60331)
Protocol: as §1

Sequence of PIK3C3 (hVPS34) (Q8NEB9 whole entry): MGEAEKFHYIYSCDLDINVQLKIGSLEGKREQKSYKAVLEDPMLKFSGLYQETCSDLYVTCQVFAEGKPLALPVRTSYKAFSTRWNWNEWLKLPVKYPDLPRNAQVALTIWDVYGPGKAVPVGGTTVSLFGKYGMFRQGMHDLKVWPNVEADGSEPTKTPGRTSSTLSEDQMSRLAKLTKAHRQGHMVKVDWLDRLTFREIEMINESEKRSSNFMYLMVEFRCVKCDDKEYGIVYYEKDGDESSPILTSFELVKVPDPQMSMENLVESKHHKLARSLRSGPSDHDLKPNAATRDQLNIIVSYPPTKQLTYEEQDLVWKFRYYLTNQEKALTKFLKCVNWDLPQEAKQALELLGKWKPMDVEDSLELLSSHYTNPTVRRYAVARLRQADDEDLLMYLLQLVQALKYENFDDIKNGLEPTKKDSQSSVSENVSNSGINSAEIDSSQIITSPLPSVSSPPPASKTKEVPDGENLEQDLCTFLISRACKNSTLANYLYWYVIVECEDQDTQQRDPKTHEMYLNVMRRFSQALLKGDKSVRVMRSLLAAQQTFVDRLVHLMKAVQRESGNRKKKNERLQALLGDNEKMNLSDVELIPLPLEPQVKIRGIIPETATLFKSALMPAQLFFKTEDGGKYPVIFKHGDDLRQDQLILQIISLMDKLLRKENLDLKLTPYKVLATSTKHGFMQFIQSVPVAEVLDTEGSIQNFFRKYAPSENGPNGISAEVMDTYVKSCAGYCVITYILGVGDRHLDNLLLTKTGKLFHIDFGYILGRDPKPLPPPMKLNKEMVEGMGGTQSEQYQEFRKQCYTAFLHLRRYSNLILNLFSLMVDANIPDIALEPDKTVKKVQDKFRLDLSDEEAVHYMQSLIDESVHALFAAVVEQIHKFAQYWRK
Sequence of PIP5K1A (Q99755 whole entry): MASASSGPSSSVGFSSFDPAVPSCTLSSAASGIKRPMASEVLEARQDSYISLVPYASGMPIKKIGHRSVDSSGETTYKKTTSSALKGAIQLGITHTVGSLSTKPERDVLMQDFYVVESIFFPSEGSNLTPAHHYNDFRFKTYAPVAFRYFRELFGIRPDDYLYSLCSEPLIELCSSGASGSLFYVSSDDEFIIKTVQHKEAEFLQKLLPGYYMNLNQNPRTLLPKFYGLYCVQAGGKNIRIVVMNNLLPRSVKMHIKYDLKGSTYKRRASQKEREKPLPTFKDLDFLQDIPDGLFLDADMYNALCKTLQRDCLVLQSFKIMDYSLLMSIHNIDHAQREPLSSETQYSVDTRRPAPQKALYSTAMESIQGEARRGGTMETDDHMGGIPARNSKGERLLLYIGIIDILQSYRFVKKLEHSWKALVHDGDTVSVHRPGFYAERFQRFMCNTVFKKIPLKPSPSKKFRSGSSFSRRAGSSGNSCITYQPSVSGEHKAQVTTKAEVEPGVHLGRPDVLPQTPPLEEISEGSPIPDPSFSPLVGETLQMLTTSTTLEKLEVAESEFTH
Sequence of PIP5K1C (O60331 whole entry): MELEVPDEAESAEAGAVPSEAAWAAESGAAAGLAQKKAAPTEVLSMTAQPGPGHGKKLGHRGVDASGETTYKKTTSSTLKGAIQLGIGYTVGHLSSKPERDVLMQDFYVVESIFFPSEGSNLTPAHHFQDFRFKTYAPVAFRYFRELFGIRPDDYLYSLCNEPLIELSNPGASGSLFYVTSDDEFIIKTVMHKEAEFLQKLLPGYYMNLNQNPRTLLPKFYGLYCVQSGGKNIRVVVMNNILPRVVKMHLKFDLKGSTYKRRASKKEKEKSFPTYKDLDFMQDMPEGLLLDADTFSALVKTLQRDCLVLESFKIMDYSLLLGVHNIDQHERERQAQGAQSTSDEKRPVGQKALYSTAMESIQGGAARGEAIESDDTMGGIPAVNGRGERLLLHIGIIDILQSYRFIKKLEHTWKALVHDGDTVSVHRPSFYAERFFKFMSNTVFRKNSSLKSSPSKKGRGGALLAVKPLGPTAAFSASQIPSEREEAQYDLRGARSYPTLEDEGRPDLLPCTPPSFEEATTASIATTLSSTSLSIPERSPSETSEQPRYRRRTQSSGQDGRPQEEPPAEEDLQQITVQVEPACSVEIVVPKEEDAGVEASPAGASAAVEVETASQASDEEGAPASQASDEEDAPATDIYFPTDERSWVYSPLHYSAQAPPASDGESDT
Sequence of PIK3CB/PIK3R2 (p110 beta/p85 beta) (P42338 whole entry): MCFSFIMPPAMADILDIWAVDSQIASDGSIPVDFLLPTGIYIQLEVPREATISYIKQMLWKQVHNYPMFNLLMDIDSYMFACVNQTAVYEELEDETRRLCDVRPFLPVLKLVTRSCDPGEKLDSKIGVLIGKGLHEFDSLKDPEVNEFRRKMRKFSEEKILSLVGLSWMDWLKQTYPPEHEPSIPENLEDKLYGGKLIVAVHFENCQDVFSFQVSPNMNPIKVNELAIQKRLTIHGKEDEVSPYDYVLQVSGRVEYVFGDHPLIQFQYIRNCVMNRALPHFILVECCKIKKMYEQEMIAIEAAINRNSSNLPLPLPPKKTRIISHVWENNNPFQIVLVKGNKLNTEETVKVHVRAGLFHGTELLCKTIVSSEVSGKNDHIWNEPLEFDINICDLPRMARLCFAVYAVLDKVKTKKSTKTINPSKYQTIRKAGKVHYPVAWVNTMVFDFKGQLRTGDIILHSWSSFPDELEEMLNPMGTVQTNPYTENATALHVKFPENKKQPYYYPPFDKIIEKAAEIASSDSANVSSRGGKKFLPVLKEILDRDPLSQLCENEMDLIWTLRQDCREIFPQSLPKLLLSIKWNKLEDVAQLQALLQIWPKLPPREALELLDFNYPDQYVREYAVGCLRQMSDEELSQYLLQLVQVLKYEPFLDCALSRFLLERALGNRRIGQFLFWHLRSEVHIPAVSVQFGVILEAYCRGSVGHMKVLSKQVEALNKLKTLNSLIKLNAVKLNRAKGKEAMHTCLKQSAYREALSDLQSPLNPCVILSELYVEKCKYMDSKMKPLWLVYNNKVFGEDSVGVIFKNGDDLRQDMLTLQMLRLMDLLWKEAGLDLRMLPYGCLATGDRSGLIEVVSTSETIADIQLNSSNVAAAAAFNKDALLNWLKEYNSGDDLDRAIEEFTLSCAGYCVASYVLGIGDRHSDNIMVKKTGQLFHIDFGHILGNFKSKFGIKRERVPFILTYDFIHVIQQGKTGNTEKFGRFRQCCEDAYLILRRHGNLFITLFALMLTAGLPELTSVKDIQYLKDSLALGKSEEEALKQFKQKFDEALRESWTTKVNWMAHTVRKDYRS
Sequence of PIK3CB/PIK3R2 (p110 beta/p85 beta) (O00459 whole entry partner): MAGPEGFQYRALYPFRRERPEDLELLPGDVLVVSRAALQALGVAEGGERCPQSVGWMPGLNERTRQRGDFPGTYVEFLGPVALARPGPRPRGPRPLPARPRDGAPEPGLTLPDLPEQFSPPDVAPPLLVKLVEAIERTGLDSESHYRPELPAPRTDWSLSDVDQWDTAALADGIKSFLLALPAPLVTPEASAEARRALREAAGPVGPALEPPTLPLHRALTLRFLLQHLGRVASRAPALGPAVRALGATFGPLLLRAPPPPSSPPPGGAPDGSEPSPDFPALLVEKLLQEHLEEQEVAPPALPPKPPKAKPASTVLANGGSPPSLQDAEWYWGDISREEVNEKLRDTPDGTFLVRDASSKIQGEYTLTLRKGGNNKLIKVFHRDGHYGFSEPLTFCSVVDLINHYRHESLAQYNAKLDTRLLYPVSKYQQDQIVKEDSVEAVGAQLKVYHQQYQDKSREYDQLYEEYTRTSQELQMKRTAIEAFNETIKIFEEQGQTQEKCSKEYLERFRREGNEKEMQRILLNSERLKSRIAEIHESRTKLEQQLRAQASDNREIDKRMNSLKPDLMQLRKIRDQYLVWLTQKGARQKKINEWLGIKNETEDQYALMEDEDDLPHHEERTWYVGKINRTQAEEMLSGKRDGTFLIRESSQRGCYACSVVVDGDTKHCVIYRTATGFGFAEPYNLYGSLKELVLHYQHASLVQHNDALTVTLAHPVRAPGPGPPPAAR
Sequence of PI4KB (PI4K beta) (Q9UBF8 whole entry): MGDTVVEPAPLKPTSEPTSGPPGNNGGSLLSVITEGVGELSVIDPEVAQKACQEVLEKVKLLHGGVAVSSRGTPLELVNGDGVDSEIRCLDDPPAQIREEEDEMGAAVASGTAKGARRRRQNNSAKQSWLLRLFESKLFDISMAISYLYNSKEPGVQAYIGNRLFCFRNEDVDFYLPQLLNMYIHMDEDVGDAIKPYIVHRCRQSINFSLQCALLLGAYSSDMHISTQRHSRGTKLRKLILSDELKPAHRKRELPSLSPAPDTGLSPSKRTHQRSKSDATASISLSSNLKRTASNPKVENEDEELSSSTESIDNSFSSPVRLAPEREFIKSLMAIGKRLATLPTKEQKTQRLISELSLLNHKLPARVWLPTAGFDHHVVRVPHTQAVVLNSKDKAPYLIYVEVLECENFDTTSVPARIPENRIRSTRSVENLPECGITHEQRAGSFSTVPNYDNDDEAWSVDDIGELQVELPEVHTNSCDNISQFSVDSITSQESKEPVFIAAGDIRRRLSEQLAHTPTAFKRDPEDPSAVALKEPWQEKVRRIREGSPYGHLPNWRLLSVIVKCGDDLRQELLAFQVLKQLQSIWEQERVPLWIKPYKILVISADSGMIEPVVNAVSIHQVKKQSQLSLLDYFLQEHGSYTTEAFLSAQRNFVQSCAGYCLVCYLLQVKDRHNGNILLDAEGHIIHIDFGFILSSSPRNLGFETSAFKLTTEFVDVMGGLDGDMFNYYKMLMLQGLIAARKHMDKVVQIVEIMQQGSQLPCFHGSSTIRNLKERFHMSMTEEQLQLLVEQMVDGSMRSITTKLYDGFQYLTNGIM

SMILES | inhibition at 1 µM (PI4KB (PI4K beta)) [%] | inhibition at 1 µM (PIK3C2G (PI3K-C2 gamma)) [%] | inhibition at 1 µM (PIK3C3 (hVPS34)) [%] | inhibition at 1 µM [1] [%] | inhibition at 1 µM (PIP5K1A) [%] | inhibition at 1 µM (PIP5K1C) [%]
O=C(CSc1nc2nccnc2c(=O)n1CCc1ccccc1)Nc1nccs1 [compound 1, PITCOIN1] | 4 | 30 | -14 | 3 | 4 | 15
CS(=O)(=O)Nc1cccc(-c2csc(NC(=O)CSc3nc4nccnc4c(=O)n3CCc3ccccc3)n2)c1 [compound 3, PITCOIN3] | 13 | 6 | 2 | 7 | -7 | -4
O=C(CSc1nc2nccnc2c(=O)n1CCc1ccccc1)Nc1nc(-c2cccc(O)c2)cs1 [compound 2, PITCOIN2] | 3 | 9 | 7 | -2 | -6 | -8
